# Assay results as given in patent publication US20230148599A1, “FUNGICIDAL MIXTURES CONTAINING PYRAZOLE DERIVATIVES” (FMC Corporation, priority 2020, published 2023).
# Experiments:
# Assay type in all cases: in vivo
# Settings in all cases: 50 ppm, 100 = 100% disease control, 0 = no control
# Septoria tritici = experiment: Test A: wheat leaf blotch, preventive spray on wheat seedlings
# Procedure, shortened: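 Wheat seedlings sprayed to run-off with compound suspended in acetone/water with 250 ppm PEG400 surfactant, inoculated next day with Septoria tritici spores. Held 48 h saturated at 24 °C, then 17 days at 20 °C; disease rated 0–100% control relative to controls.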
# [1] = tested on: Puccinia recondita f. sp. tritici; experiment: Test B: wheat leaf rust, preventive spray on wheat seedlings
# Procedure, shortened: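 Wheat seedlings were sprayed to run-off with compound suspended at ppm concentrations in acetone/water containing 250 ppm PEG400. The next day they were inoculated with Puccinia recondita f. sp. tritici spores, held saturated at 20 °C for 24 h, then kept 7 days at 20 °C. Disease control was rated 0–100% relative to untreated controls.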
# [2] = tested on: Blumeria graminis f. sp. tritici; experiment: Test C: wheat powdery mildew, preventive spray on wheat seedlings
# Procedure, shortened: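 Seedlings were sprayed to run-off with compound suspended (ppm) in 50/50 acetone–water containing 250 ppm PEG400, then spore-dust inoculated the following day. After 8 days at 20° C, disease control was rated visually from 0 to 100 against controls.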
# Phakopsora pachyrhizi = experiment: Test D: Asian soybean rust, preventive spray on soybean seedlings
# Procedure, shortened: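 Compounds in acetone/water (50/50) with 250 ppm PEG400, dosed in ppm, sprayed to run-off on soybean seedlings; inoculated with P. pachyrhizi spores next day. Held 24 h at 22 °C in saturated air, then 8 days at 22 °C; visual rating of disease control, 0–100, relative to untreated controls.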
# Botrytis cinerea = experiment: Test E: tomato Botrytis, preventive spray on tomato seedlings
# Procedure, shortened: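 Compound suspended in 50/50 acetone/water with 250 ppm PEG400 surfactant and sprayed to run-off on tomato seedlings; Botrytis cinerea spores applied the next day. Incubation 48 h at 20° C in saturated atmosphere, then 3 days at 24° C. Visual rating 0–100% disease control relative to controls.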
# Alternaria solani = experiment: Test F: tomato early blight, preventive spray on tomato seedlings
# Procedure, shortened: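 Tomato seedlings were sprayed to run-off with compound suspended in acetone/water (50/50) with 250 ppm PEG400 and inoculated with Alternaria solani spores the next day. Plants were held 48 h at 27 °C in saturated humidity, then 3 days at 20 °C. Disease control was rated visually from 0 to 100 against untreated controls.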
Structure (SMILES),Test A disease control rating (Septoria tritici) [%],Test B disease control rating [1] [%],Test C disease control rating [2] [%],Test D disease control rating (Phakopsora pachyrhizi) [%],Test E disease control rating (Botrytis cinerea) [%],Test F disease control rating (Alternaria solani) [%]
Cc1nn(C)c(Nc2c(Cl)cccc2[N+](=O)[O-])c1-c1ccc(F)cc1F [compound 79],100,100,91,44,98,0
COc1ccc(-c2c(C)nn(C)c2Nc2c(Cl)cc(C)cc2[N+](=O)[O-])c(Cl)c1 [compound 66],100,100,98,97,98,96
Cc1nn(C)c(Nc2c(F)cccc2[N+](=O)[O-])c1-c1c(F)cccc1Cl [compound 25],100,100,99,98,100,98
Cc1cc(F)c(Nc2c(-c3c(F)cc(F)cc3Cl)c(C)nn2C)c([N+](=O)[O-])c1 [compound 193],100,100,100,99,99,100
Cc1nn(C)c(Nc2ccccc2[N+](=O)[O-])c1-c1ccc(F)cc1F [compound 190],100,32,91,0,100,9
Cc1nn(C)c(Nc2c(Cl)cccc2[N+](=O)[O-])c1-c1ccc(C#N)cc1Cl [compound 123],100,97,81,0,100,66
Cc1nn(C)c(Nc2c(Cl)cc(Cl)cc2[N+](=O)[O-])c1-c1c(F)cccc1F [compound 96],100,95,0,0,80,0
Cc1nn(C)c(Nc2ccc(Br)cc2[N+](=O)[O-])c1-c1ccc(F)cc1Cl [compound 91],99,88,84,0,99,26
COc1ccc(-c2c(C)nn(C)c2Nc2c(Cl)cccc2[N+](=O)[O-])c(C)c1 [compound 35],99,85,0,0,0,0
Cc1nn(C)c(Nc2ccccc2[N+](=O)[O-])c1-c1ccc(Cl)cc1Cl [compound 189],99,68,57,0,99,0
COc1ccc(Nc2c(-c3c(F)cc(C#N)cc3F)c(C)nn2C)c([N+](=O)[O-])c1 [compound 150],100,100,98,13,100,99
Cc1nn(C)c(Nc2ccc(F)cc2[N+](=O)[O-])c1-c1ccc(F)cc1Br [compound 20],100,89,92,0,99,26
Cc1cc(F)c(Nc2c(-c3ccc(F)cc3Br)c(C)nn2C)c([N+](=O)[O-])c1 [compound 40],100,100,100,82,98,100
Cc1cc(F)c(Nc2c(-c3c(F)cccc3Cl)c(C)nn2C)c([N+](=O)[O-])c1 [compound 201],100,100,99,98,99,99
Cc1nn(C)c(Nc2c(Cl)cc(Cl)cc2[N+](=O)[O-])c1-c1ccc(Cl)cc1Cl [compound 146],97,98,0,0,0,40
Cc1nn(C)c(Nc2ccccc2[N+](=O)[O-])c1-c1ccc(C#N)cc1F [compound 134],100,23,71,0,70,0
CCc1nn(C)c(Nc2c(F)cccc2[N+](=O)[O-])c1-c1ccc(F)cc1F [compound 46],100,98,99,0,99,81
Cc1nn(C)c(Nc2ccc(F)cc2[N+](=O)[O-])c1-c1c(F)cccc1Cl [compound 44],100,99,98,0,95,46
COc1ccc(-c2c(C)nn(C)c2Nc2c(F)cc(F)cc2[N+](=O)[O-])c(Cl)c1 [compound 64],100,100,98,97,98,99
Cc1nn(C)c(Nc2c(F)cc(F)cc2[N+](=O)[O-])c1-c1ccc(F)cc1Br [compound 51],100,100,100,79,98,99
Cc1ccc(Nc2c(-c3ccc(F)cc3Br)c(C)nn2C)c([N+](=O)[O-])c1 [compound 90],100,95,87,0,99,9
Cc1nn(C)c(Nc2c(F)cc(Br)cc2[N+](=O)[O-])c1-c1ccc(Cl)cc1Cl [compound 132],100,98,47,0,99,96
Cc1nn(C)c(Nc2c(Cl)cc(F)cc2[N+](=O)[O-])c1-c1ccc(F)cc1Br [compound 43],100,100,97,65,96,64
Cc1nn(C)c(Nc2c(Cl)cc(F)cc2[N+](=O)[O-])c1-c1c(F)cccc1F [compound 76],100,99,95,25,87,0
Cc1ccc(Nc2c(-c3c(F)cccc3F)c(C)nn2C)c([N+](=O)[O-])c1 [compound 105],99,74,86,0,73,0
CCc1nn(C)c(Nc2c(Cl)cc(C)cc2[N+](=O)[O-])c1-c1ccc(F)cc1F [compound 16],100,99,98,50,99,0
